The experiment addresses T1, RORγ (Homo sapiens, UniProt P51449).
T1 sequence (P51449 269-508 limits assumed): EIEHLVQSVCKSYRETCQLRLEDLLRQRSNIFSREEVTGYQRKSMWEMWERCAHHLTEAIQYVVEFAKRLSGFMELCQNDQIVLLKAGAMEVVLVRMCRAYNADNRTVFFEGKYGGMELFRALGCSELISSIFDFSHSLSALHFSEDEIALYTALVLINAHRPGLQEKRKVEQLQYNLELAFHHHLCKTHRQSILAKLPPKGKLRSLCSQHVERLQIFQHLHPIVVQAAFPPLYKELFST
Nature of the experiment: RORγ GAL4 reporter gene assay. To be noted: mean pIC50, inhibition of RORγ (GAL4-RORγ-LBD) in 293FT cells, luciferase readout, overnight incubation.
Excerpt: The RORγ ligand-binding domain (LBD) was fused to the yeast GAL4 DNA binding domain (DBD) and placed under the control of the human cytomegalovirus (CMV) immediate early promoter, using expression vector pFN26A (Promega) and standard recombinant DNA cloning methods.
To monitor the inhibitory effect of compounds on RORγ, a transcriptional reporter construct was used. The pGL4.35 vector (Promega) contains nine copies of the GAL4 Upstream Activator Sequence (UAS). This sequence drives the transcription of the luciferase reporter gene luc2P in response to binding of a fusion protein containing the GAL4 DNA binding domain, as for example expressed by the GAL4-RORγ-LBD and GAL4-VP16 expression vectors described above.
The day after transfection, cells were plated into 96 well plates, test compound was added and the plates were incubated overnight. Subsequently, the firefly luciferase activity was quantified using luciferase detection reagent and luminescence readout.
1500 μL of this reagent mixture was added to 5 μg of GAL4 fusion protein expression vector and 5 μg of the transcriptional reporter construct, and incubated at RT for 20 minutes.
Subsequently, the cells were washed with Phosphate Buffered Saline (PBS) (Lonza), after which the PBS was removed. To dissociate the cells, 1 ml of TrypLE Express (Invitrogen) was added to the flask, followed by incubation at RT until the cells visually started to detach. Cells were collected in 5 mL of assay medium (DMEM culture medium (Lonza), 10% dialyzed FBS (Invitrogen) and Pen/Strep (Lonza)) to achieve a single cell suspension. 10×10^6 cells were spun down and re-suspended in 10 mL of assay medium. Subsequently, the cell suspension was added to the transfection mix tube, and then transferred as a whole to a T75 flask (Greiner), followed by overnight (16-24 hours) incubation at 37° C. and 5% CO2.
For compound screening, the cells were harvested (as described above) and counted. […] 80 μL of cell suspension (60,000 cells) was plated per well into a white, flat bottom, tissue culture treated, 96 well screening plates (Greiner).
Test compounds were diluted, starting from a 10 mM dimethylsulfoxide (DMSO) stock solution, to serial dilutions in DMSO at 500× the final test concentration. Subsequently, these solutions were diluted to 5× the final test concentration in two 10-fold-dilution steps in assay medium. The final DMSO concentration of the 5× test compound solution was 1%. 20 μL of the 5× test compound solution was added to each test well of the 96 well plate previously plated with 80 μl cell suspension, resulting in the final test concentration with 0.2% DMSO.
The plates were incubated overnight (16-24 hours) at 37° C. and 5% CO2.
For the luciferase readout, the luciferase reagent (Britelite Plus, Perkin Elmer) was brought to RT. […] The luciferase luminescence signal was measured using a Wallac Victor Microplate Reader (Perkin Elmer).
The half maximum inhibitory concentration (IC50) values for the test compounds were calculated from the luciferase signal using GraphPad Prism software (GraphPad Software).
For the compound `O=C(Cc1ccc(S(=O)(=O)NC2CC2)cc1)Nc1ccc(C(O)(CC2CCCC2)C(F)(F)F)cc1` (stereo not shown) [Example 99, N-(4-(3-cyclopentyl-1,1,1-trifluoro-2-hydroxypropan-2-yl)phenyl)-2-(4-(N-cyclopropylsulfamoyl)phenyl)acetamide], the IC50 is not above 1000 nM.

In the case of `O=C(Cc1cccc(S(=O)(=O)NC2CC2)c1)Nc1ccc(C(O)(C(F)(F)F)C(F)(F)F)c(F)c1` [Example 38, 2-(3-(N-cyclopropylsulfamoyl)phenyl)-N-(3-fluoro-4-(1,1,1,3,3,3-hexafluoro-2-hydroxypropan-2-yl)phenyl)acetamide], the IC50 is not above 1000 nM.

Compound `CCOC(c1ccc(NC(=O)Cc2ccc(S(=O)(=O)CC)cc2)cc1)(C(F)(F)F)C(F)(F)F` [Example 48, N-(4-(2-ethoxy-1,1,1,3,3,3-hexafluoropropan-2-yl)phenyl)-2-(4-(ethylsulfonyl)phenyl)acetamide] showed an IC50 not above 1000 nM. The same measure for `COC(c1ccc(NC(=O)Cc2ccc(S(=O)(=O)CC3CC3)cc2)cc1)(C(F)(F)F)C(F)(F)F` [Example 54, 2-(4-((cyclopropylmethyl)sulfonyl)phenyl)-N-(4-(1,1,1,3,3,3-hexafluoro-2-methoxypropan-2-yl)phenyl)acetamide]: not above 100 nM. The compound `CC(C)OC(c1ccc(NC(=O)Cc2ccc(S(=O)(=O)CC3CC3)cc2)cc1)(C(F)(F)F)C(F)(F)F` [Example 51, 2-(4-((cyclopropylmethyl)sulfonyl)phenyl)-N-(4-(1,1,1,3,3,3-hexafluoro-2-isopropoxypropan-2-yl)phenyl)acetamide] had an IC50 not above 100 nM. For `O=C(Cc1ccc(S(=O)(=O)CC2CC2)cc1)Nc1ccc(C(O)(C(F)(F)F)C(F)(F)F)cc1` [Example 37, 2-(4-((cyclopropylmethyl)sulfonyl)phenyl)-N-(4-(1,1,1,3,3,3-hexafluoro-2-hydroxypropan-2-yl)phenyl)acetamide] the value was not above 10 nM; for `O=C(Cc1ccc(S(=O)(=O)NC2CC2)cc1)Nc1ccc(C(O)(C(F)(F)F)C(F)(F)F)cc1` [Example 9, 2-(4-(N-cyclopropylsulfamoyl)phenyl)-N-(4-(1,1,1,3,3,3-hexafluoro-2-hydroxypropan-2-yl)phenyl)acetamide], not above 100 nM; for `CCS(=O)(=O)c1ccc(C(C)C(=O)Nc2ccc(C(O)(C(F)(F)F)C(F)(F)F)cc2)cc1` (stereo not shown) [Example 5, 2-(4-(ethylsulfonyl)phenyl)-N-(4-(1,1,1,3,3,3-hexafluoro-2-hydroxypropan-2-yl)phenyl)propanamide], not above 1000 nM. For `CCC(O)(c1ccc(NC(=O)Cc2ccc(S(=O)(=O)NC3CC3)cc2)cc1)C(F)(F)F` (stereo not shown) [Example 79, 2-(4-(N-cyclopropylsulfamoyl)phenyl)-N-(4-(1,1,1-trifluoro-2-hydroxybutan-2-yl)phenyl)acetamide] the value was not above 1000 nM; for `O=C(Cc1ccc(S(=O)(=O)CC2CC2)cc1)Nc1ccc(C(O)(C(F)(F)F)C(F)(F)F)nc1` [Example 110, 2-(4-((cyclopropylmethyl)sulfonyl)phenyl)-N-(6-(1,1,1,3,3,3-hexafluoro-2-hydroxypropan-2-yl)pyridin-3-yl)acetamide], not above 1000 nM. For `O=C(Cc1ccc(S(=O)(=O)NC2CC2)cc1)Nc1ccc(C(O)(C2CCCC2)C(F)(F)F)cc1` (stereo not shown) [Example 90, N-(4-(1-cyclopentyl-2,2,2-trifluoro-1-hydroxyethyl)phenyl)-2-(4-(N-cyclopropylsulfamoyl)phenyl)acetamide] the value was not above 1000 nM. Regarding `CCS(=O)(=O)c1ccc(CC(=O)Nc2ccc(C(O)(C(F)(F)F)C(F)(F)F)cc2C)cc1` [Example 31, 2-(4-(ethylsulfonyl)phenyl)-N-(4-(1,1,1,3,3,3-hexafluoro-2-hydroxypropan-2-yl)-2-methylphenyl)acetamide], the IC50 was not above 1000 nM. For `CCS(=O)(=O)c1ccc(CC(=O)Nc2c(C)cc(C(O)(C(F)(F)F)C(F)(F)F)cc2C)cc1` [Example 23, 2-(4-(ethylsulfonyl)phenyl)-N-(4-(1,1,1,3,3,3-hexafluoro-2-hydroxypropan-2-yl)-2,6-dimethylphenyl)acetamide] the value was not above 1000 nM; for `O=C(Cc1ccc(S(=O)(=O)CC2CC2)cc1)Nc1ccc(C(OCc2ccccc2)(C(F)(F)F)C(F)(F)F)cc1` [Example 59, N-(4-(2-(benzyloxy)-1,1,1,3,3,3-hexafluoropropan-2-yl)phenyl)-2-(4-((cyclopropylmethyl)sulfonyl)phenyl)acetamide], not above 100 nM; for `CCCC(O)(c1ccc(NC(=O)Cc2ccc(S(=O)(=O)CC)cc2)cc1)C(F)(F)F` (stereo not shown) [Example 63, 2-(4-(ethylsulfonyl)phenyl)-N-(4-(1,1,1-trifluoro-2-hydroxypentan-2-yl)phenyl)acetamide], not above 1000 nM.

`O=C(Cc1ccc(S(=O)(=O)CC2CC2)cc1)Nc1ccc(C(O)(C2CCCC2)C(F)(F)F)cc1` (stereo not shown) [Example 75, N-(4-(1-cyclopentyl-2,2,2-trifluoro-1-hydroxyethyl)phenyl)-2-(4-((cyclopropylmethyl)sulfonyl)phenyl)acetamide] came in with an IC50 not above 10 nM.

In turn, `O=C(Cc1ccc(S(=O)(=O)CC2CC2)cc1)Nc1ccc(C(O)(Cc2ccccc2)C(F)(F)F)cc1` (stereo not shown) [Example 87, 2-(4-cyclopropylmethanesulfonylphenyl)-N-[4-(1,1,1-trifluoro-2-hydroxy-3-phenylpropan-2-yl)phenyl]acetamide] yielded an IC50 not above 100 nM. In turn, `CCCC(O)(c1ccc(NC(=O)Cc2ccc(S(=O)(=O)NC3CC3)cc2)cc1)C(F)(F)F` (stereo not shown) [Example 80, 2-(4-(N-cyclopropylsulfamoyl)phenyl)-N-(4-(1,1,1-trifluoro-2-hydroxypentan-2-yl)phenyl)acetamide] came in with an IC50 not above 1000 nM. For `CCS(=O)(=O)c1ccc(CC(=O)Nc2cc(Cl)c(C(O)(C(F)(F)F)C(F)(F)F)cc2OC)cc1` [Example 22, N-(5-chloro-4-(1,1,1,3,3,3-hexafluoro-2-hydroxypropan-2-yl)-2-methoxyphenyl)-2-(4-(ethylsulfonyl)phenyl)acetamide], the IC50 was not above 1000 nM. For `Cc1c(NC(=O)Cc2ccc(S(=O)(=O)NC3CC3)cc2)ccc(C(O)(C(F)(F)F)C(F)(F)F)c1F` [Example 26, 2-(4-(N-cyclopropylsulfamoyl)phenyl)-N-(3-fluoro-4-(1,1,1,3,3,3-hexafluoro-2-hydroxypropan-2-yl)-2-methylphenyl)acetamide] the value was not above 1000 nM; for `CCC(O)(c1ccc(NC(=O)Cc2ccc(S(=O)(=O)CC3CC3)cc2)cc1)C(F)(F)F` (stereo not shown) [Example 83, 2-(4-((cyclopropylmethyl)sulfonyl)phenyl)-N-(4-(1,1,1-trifluoro-2-hydroxybutan-2-yl)phenyl)acetamide], not above 10 nM; for `O=C(Cc1ccc(S(=O)(=O)CC2CC2)cc1)Nc1ccc(C(O)(C2CC2)C(F)(F)F)cc1` (stereo not shown) [Example 67, N-(4-(1-cyclopropyl-2,2,2-trifluoro-1-hydroxyethyl)phenyl)-2-(4-((cyclopropylmethyl)sulfonyl)phenyl)acetamide], not above 100 nM. Take `O=C(Cc1ccc(S(=O)(=O)CC2CC2)cc1)Nc1ccc(C(O)(C(F)(F)F)C(F)(F)F)cc1Cl` [Example 98, N-(2-chloro-4-(1,1,1,3,3,3-hexafluoro-2-hydroxypropan-2-yl)phenyl)-2-(4-((cyclopropylmethyl)sulfonyl)phenyl)acetamide]: the IC50 is not above 100 nM. For `O=C(Cc1ccc(S(=O)(=O)CC2CC2)cc1)Nc1ccc(C(O)(C(F)(F)F)C(F)(F)F)cc1F` [Example 46, 2-(4-((cyclopropylmethyl)sulfonyl)phenyl)-N-(2-fluoro-4-(1,1,1,3,3,3-hexafluoro-2-hydroxypropan-2-yl)phenyl)acetamide] the value was not above 10 nM. The same measure for `COc1cc(C(O)(C(F)(F)F)C(F)(F)F)ccc1NC(=O)Cc1ccc(S(=O)(=O)CC2CC2)cc1` [Example 55, 2-(4-((cyclopropylmethyl)sulfonyl)phenyl)-N-(4-(1,1,1,3,3,3-hexafluoro-2-hydroxypropan-2-yl)-2-methoxyphenyl)acetamide]: not above 100 nM. For `CNS(=O)(=O)c1cccc(CC(=O)Nc2ccc(C(O)(C(F)(F)F)C(F)(F)F)cc2)c1` [Example 19, N-(4-(1,1,1,3,3,3-hexafluoro-2-hydroxypropan-2-yl)phenyl)-2-(3-(N-methylsulfamoyl)phenyl)acetamide] the value was not above 1000 nM; for `COc1cc(NC(=O)Cc2ccc(S(=O)(=O)CC3CC3)cc2)ccc1C(O)(C(F)(F)F)C(F)(F)F` [Example 56, 2-(4-((cyclopropylmethyl)sulfonyl)phenyl)-N-(4-(1,1,1,3,3,3-hexafluoro-2-hydroxypropan-2-yl)-3-methoxyphenyl)acetamide], not above 1000 nM; for `O=C(Cc1ccc(S(=O)(=O)CC2CC2)cc1)Nc1ccc(C(O)C(F)(F)F)cc1` (stereo not shown) [Example 70, 2-(4-((cyclopropylmethyl)sulfonyl)phenyl)-N-(4-(2,2,2-trifluoro-1-hydroxyethyl)phenyl)acetamide], not above 1000 nM. Compound `O=C(Cc1ccc(S(=O)(=O)NC2CC2)cc1)Nc1ccc(C(O)(C(F)(F)F)C(F)(F)F)c(Cl)c1` [Example 89, N-(3-chloro-4-(1,1,1,3,3,3-hexafluoro-2-hydroxypropan-2-yl)phenyl)-2-(4-(N-cyclopropylsulfamoyl)phenyl)acetamide] gave an IC50 not above 1000 nM. The same measure for `CCCOC(c1ccc(NC(=O)Cc2ccc(S(=O)(=O)CC)cc2)cc1)(C(F)(F)F)C(F)(F)F` [Example 49, 2-(4-(ethylsulfonyl)phenyl)-N-(4-(1,1,1,3,3,3-hexafluoro-2-propoxypropan-2-yl)phenyl)acetamide]: not above 100 nM; for `Cc1cc(C(O)(C(F)(F)F)C(F)(F)F)ccc1NC(=O)Cc1ccc(S(=O)(=O)NC2CC2)cc1` [Example 34, 2-(4-(N-cyclopropylsulfamoyl)phenyl)-N-(4-(1,1,1,3,3,3-hexafluoro-2-hydroxypropan-2-yl)-2-methylphenyl)acetamide]: not above 1000 nM.

As a reminder, the IC50 is the concentration at which inhibition is half-maximal. A high value points to weaker potency in that assay.

The values above are taken from patent US9738600B2, “ROR gamma (RORγ) modulators” (LEAD PHARMA CEL MODELS IP B.V., priority 2013, dated 2017).
